Laboratory results: patent US12686687B2, “Compounds and uses thereof” (Foghorn Therapeutics Inc., priority 2019, dated 2026)
Like-named read-outs stand apart in the source and are kept apart here.

Target: T1, Nanoluciferase-BRD9 fusion protein (3×FLAG-NLuc-BRD9) in SYO-1 cells (Homo sapiens, UniProt Q9H8M2)
T1 construct: expressed in transfected cells; host or cells: SYO-1
T1 sequence (Q9H8M2 1-597): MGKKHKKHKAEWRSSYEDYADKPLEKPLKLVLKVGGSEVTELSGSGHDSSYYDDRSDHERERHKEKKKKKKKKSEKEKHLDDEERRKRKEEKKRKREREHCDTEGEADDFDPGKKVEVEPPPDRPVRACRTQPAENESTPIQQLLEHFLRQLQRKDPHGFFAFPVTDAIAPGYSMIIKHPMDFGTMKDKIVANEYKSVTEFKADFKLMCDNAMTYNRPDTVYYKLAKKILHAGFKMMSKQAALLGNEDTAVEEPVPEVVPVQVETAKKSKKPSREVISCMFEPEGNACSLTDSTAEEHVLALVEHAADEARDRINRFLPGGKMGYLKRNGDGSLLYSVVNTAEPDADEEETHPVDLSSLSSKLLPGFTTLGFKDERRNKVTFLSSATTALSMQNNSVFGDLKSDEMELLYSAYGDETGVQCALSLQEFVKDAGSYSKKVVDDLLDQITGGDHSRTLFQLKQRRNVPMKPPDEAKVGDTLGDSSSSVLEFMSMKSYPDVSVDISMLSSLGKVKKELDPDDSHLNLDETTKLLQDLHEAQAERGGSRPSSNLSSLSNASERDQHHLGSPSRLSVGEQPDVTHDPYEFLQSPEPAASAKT
Test: SYO1 BRD9 NanoLuc degradation assay
Type: cell-based
Details: SYO-1 cells expressing 3×FLAG-NLuc-BRD9, 6 hours incubation, 1 μM top dose, read-out: SYO1 BRD9-NanoLuc degradation IC50
Outline: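 Stable SYO-1 line expressing 3×FLAG-NLuc-BRD9 was seeded at 8000 cells/well, then treated next day for 6 h with 10-point 3-fold dilutions (top 1 μM final). Nano-Glo luminescence was read. % inhibition was normalised to DMSO (high control) and 1 μM reference BRD9 degrader (low control).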

| SMILES | DC50 (Table 6B) [µM] | DC50 (Table 6C) [µM] |
| --- | --- | --- |
| COc1cc(-c2cn(C)c(=O)c3cc(C(=O)NCC4CC5(CCN(C(=O)CCN6CCN(c7ccc8c(c7)C(=O)N(C7CCC(=O)NC7=O)C8=O)CC6)CC5)O4)sc23)cc(OC)c1CN(C)C (stereo not drawn) [Compound D61] | > 0.1 |  |
| COc1cc(-c2cn(C)c(=O)c3cc(C(=O)NCC4CC5(CCN(C(=O)CCN6CCN(c7ccc8c(c7)C(=O)N(C7CCC(=O)NC7=O)C8=O)CC6)CC5)C4)sc23)cc(OC)c1CN(C)C (stereo not drawn) [Compound D35] | < 0.01 |  |
| COc1cc(-c2cn(C)c(=O)c3ccsc23)cc(OC)c1CN1CCN(c2ccc3c(c2)C(=O)N(C2CCC(=O)NC2=O)C3)CC12CCC2 (stereo not drawn) [Compound D176] |  | < 0.01 |
| COc1cc(-c2cn(C)c(=O)c3cc(C(=O)NC4CCN(c5cccc(CN6CCC(=O)NC6=O)c5)CC4)sc23)cc(OC)c1CN(C)C [Compound D124] |  | < 0.01 |
| COc1cc(-c2cn(C)c(=O)c3cc(C(=O)NCC4CC45CCN(CCCN4CCN(c6ccc7c(c6)C(=O)N(C6CCC(=O)NC6=O)C7=O)CC4)CC5)sc23)cc(OC)c1CN(C)C (stereo not drawn) [Compound D56] | > 0.01 |  |
| COc1cc(-c2cn(C)c(=O)c3cc(C(=O)NCC4CC5(CCN(CCN6CCN(c7ccc8c(c7)C(=O)N(C7CCC(=O)NC7=O)C8=O)CC6)CC5)C4)sc23)cc(OC)c1CN(C)C (stereo not drawn) [Compound D36] | < 0.01 |  |
| COc1cc(-c2cn(C)c(=O)c3sccc23)cc(OC)c1CN1CCC2(CC1)CN(c1ccc3c(c1)C(=O)N(C1CCC(=O)NC1=O)C3)C2 (stereo not drawn) [Compound D207] |  | < 0.01 |
| COc1cc(-c2cn(C)c(=O)c3cc(C(=O)NC4CCN(C)CC4)sc23)cc(OC)c1CN(C)CC(=O)NCCOCCOc1cccc2c1C(=O)N(C1CCC(=O)NC1=O)C2=O (stereo not drawn) [Compound D32] | > 0.1 |  |
| COc1cc(-c2cn(C)c(=O)c3ncsc23)cc(OC)c1CN1CCC2(CC1)CN(c1ccc3c(c1)C(=O)N(C1CCC(=O)NC1=O)C3=O)C2 (stereo not drawn) [Compound D202] |  | < 0.01 |
| COc1cc(-c2cn(C)c(=O)c3ccsc23)cc(OC)c1CN1[C@H](C)CN(c2ccc3c(c2)CN(C2CCC(=O)NC2=O)C3=O)C[C@H]1C (stereo partly drawn) [Compound D136] |  | < 0.01 |
| COc1cc(-c2cn(C)c(=O)c3ccsc23)cc(OC)c1CN1CCC2(CN(c3ccc4c(c3)C(=O)N(C3CCC(=O)NC3=O)C4)C2)C(F)(F)C1 (stereo not drawn) [Compound D111] |  | < 0.01 |
| COc1cc(-c2cn(C)c(=O)c3c(C)csc23)cc(OC)c1CN1CCC(CN2CCC3(CC2)CC(Oc2ccc4c(c2)C(=O)N(C2CCC(=O)NC2=O)C4=O)C3)CC1 (stereo not drawn) [Compound D160] |  | < 0.01 |
| COc1cc(-c2cn(C)c(=O)c3cc(C(=O)Nc4cccc(OC5CCC(=O)NC5=O)c4)sc23)cc(OC)c1CN(C)C (stereo not drawn) [Compound D95] |  | > 0.1 |
| COc1cc(-c2cn(C)c(=O)c3cc(C(=O)NC4CCN(CCCCCOc5cccc6c5C(=O)N(C5CCC(=O)NC5=O)C6=O)CC4F)sc23)cc(OC)c1CN(C)C (stereo not drawn) [Compound D84] | < 0.01 |  |
| COc1cc2c(=O)n(C)cc(-c3cc(OC)c(CN4CCC5(CC4)CN(c4ccc6c(c4)C(=O)N(C4CCC(=O)NC4=O)C6)C5)c(OC)c3)c2s1 (stereo not drawn) [Compound D120] |  | < 0.01 |
| COc1cc(OC)cc(-c2cn(C)c(=O)c3cc(C(=O)NC4CN(c5ccc6c(c5)C(=O)N(C5CCC(=O)NC5=O)C6)C4)sc23)c1 (stereo not drawn) [Compound D115] |  | < 0.01 |
| COc1cc(-c2cn(C)c(=O)c3cc(N4CCC4)sc23)cc(OC)c1CN1CCC(CCN2CCN(c3ccc4c(c3)C(=O)N(C3CCC(=O)NC3=O)C4)CC2)CC1 (stereo not drawn) [Compound D94] |  | < 0.01 |
| COc1cc(-c2cn(C)c(=O)c3cc(C(=O)NCC4CC5(CCN(CCCN6CCN(c7ccc8c(c7)C(=O)N(C7CCC(=O)NC7=O)C8=O)CC6)CC5)CO4)sc23)cc(OC)c1CN(C)C (stereo not drawn) [Compound D49] | < 0.01 |  |
| COc1cc(-c2cn(C)c(=O)c3cc(C(=O)NC4CCC5CN(C(=O)CCN6CCN(c7ccc8c(c7)C(=O)N(C7CCC(=O)NC7=O)C8=O)CC6)CC54)sc23)cc(OC)c1CN(C)C (stereo not drawn) [Compound D58] | > 0.01 |  |
| COc1cc(OC)cc(-c2cn(C)c(=O)c3cc(C(=O)NC4CCN(c5ccc6c(c5)C(=O)N(C5CCC(=O)NC5=O)C6)CC4)sc23)c1 (stereo not drawn) [Compound D109] |  | < 0.01 |
| COc1cc(-c2cn(C)c(=O)c3cc(C(=O)NCC4CC5(CCN(CCCN6CCN(c7ccc8c(c7)C(=O)N(C7CCC(=O)NC7=O)C8=O)CC6)CC5)C4)sc23)cc(OC)c1CN(C)C (stereo not drawn) [Compound D33] | < 0.01 |  |
| COc1cc(-c2c(C)n(C)c(=O)c3ccsc23)cc(OC)c1CN1CCC(CN2CCC3(CC2)CN(c2ccc4c(c2)C(=O)N(C2CCC(=O)NC2=O)C4)C3)CC1 (stereo not drawn) [Compound D153] |  | < 0.01 |
| COc1cc(-c2cn(C)c(=O)c3cc(C(=O)NC4CCN(C(=O)CCCCOc5cccc6c5C(=O)N(C5CCC(=O)NC5=O)C6=O)CC4)sc23)cc(OC)c1CN1CCC1 (stereo not drawn) [Compound D29] | < 0.01 |  |

Continued, values first:

| DC50 (Table 6B) [µM] | DC50 (Table 6C) [µM] | SMILES |
| --- | --- | --- |
|  | < 0.01 | COc1cc(-c2cn(C)c(=O)c3cc(C(=O)NC4CCN(c5ccc6c(c5)C(=O)N(C5CCC(=O)NC5=O)C6)C4)sc23)cc(OC)c1CN(C)C (stereo not drawn) [Compound D114] |
| < 0.01 |  | COc1cc(-c2cn(C)c(=O)c3cc(C(=O)NC4CC5(CCN(CCN6CCN(c7ccc8c(c7)C(=O)N([C@H]7CCC(=O)NC7=O)C8=O)CC6)C5)C4)sc23)cc(OC)c1CN(C)C (stereo partly drawn) [Compound D66] |
|  | > 1 | COc1cc(-c2cn(C)c(=O)c3c(C)c(C(=O)NC4CCN(C5CCN(c6ccc7c(c6)C(=O)N(C6CCC(=O)NC6=O)C7)CC5)CC4(F)F)sc23)cc(OC)c1CN(C)C (stereo not drawn) [Compound D148] |
|  | < 0.01 | COc1cc(-c2cn(C)c(=O)c3cc(C(=O)NC4CN(c5ccc6c(c5)C(=O)N(C5CCC(=O)NC5=O)C6)CC4(F)F)sc23)cc(OC)c1CN(C)C (stereo not drawn) [Compound D177] |
|  | < 0.01 | COc1cc(-c2cn(C)c(=O)c3cc(C(=O)N[C@@H]4CCN(c5ccc6c(c5)C(=O)N(C5CCC(=O)NC5=O)C6)CC4(F)F)sc23)cc(OC)c1CN(C)C (stereo partly drawn) [Compound D156] |
|  | > 1 | COc1cc(-c2cn(C)c(=O)c3cc(C(=O)NC4CCN(C5CCN(c6ccc7c(c6)C(=O)N(C6CCC(=O)N(C)C6=O)C7)CC5)CC4(F)F)sc23)cc(OC)c1CN(C)C (stereo not drawn) [Compound D142] |
| < 0.01 |  | COc1cc(-c2cn(C)c(=O)c3cc(C(=O)NC4CCN(CCN5CCN(c6ccc7c(c6)C(=O)N(C6CCC(=O)NC6=O)C7=O)CC5)CC4(F)F)sc23)cc(OC)c1CN(C)C (stereo not drawn) [Compound D79] |
| < 0.01 |  | COc1cc(-c2cn(C)c(=O)c3cc(C(=O)NC4CCN(C5CCN(c6ccc7c(c6)CN(C6CCC(=O)NC6=O)C7=O)CC5)CC4(F)F)sc23)cc(OC)c1CN(C)C (stereo not drawn) [Compound D25] |
|  | < 0.01 | COc1cc(-c2cn(C)c(=O)c3cc(C(=O)NC4CCN(C)CC4(F)F)sc23)cc(OC)c1CN1CC(CN2CCC3(CC2)CN(c2ccc4c(c2)C(=O)N(C2CCC(=O)NC2=O)C4)C3)C1 (stereo not drawn) [Compound D188] |
|  | < 0.01 | COc1cc(-c2cn(C)c(=O)c3cc(C(=O)NC4CC5(CCN(c6ccc7c(c6)C(=O)N(C6CCC(=O)NC6=O)C7)CC5)C4)sc23)cc(OC)c1CN(C)C (stereo not drawn) [Compound D149] |
|  | < 0.01 | COc1cc(-c2cn(C)c(=O)c3cc(C(=O)NC4CN(C5CCN(c6ccc7c(c6)CN(C6CCC(=O)NC6=O)C7=O)CC5)CC4(F)F)sc23)cc(OC)c1CN(C)C (stereo not drawn) [Compound D181] |
|  | < 0.01 | COc1cc(-c2cn(C)c(=O)c3cc(C(=O)N[C@H]4CCN(C5CCN(c6ccc7c(c6)C(=O)N([C@H]6CCC(=O)NC6=O)C7)CC5)CC4(F)F)sc23)cc(OC)c1CN(C)C [Compound D141] |
| < 0.01 |  | COc1cc(-c2cn(C)c(=O)c3cc(C(=O)NC4CCN(CCCCCOc5ccc6c(c5)C(=O)N(C5CCC(=O)NC5=O)C6=O)CC4(F)F)sc23)cc(OC)c1CN1CCC1 (stereo not drawn) [Compound D28] |
|  | < 0.01 | COc1cc(-c2cn(C)c(=O)c3cc(C(=O)NC4CCN(C5CCN(c6ccc7c(c6)CN(C6CCC(=O)NC6=O)C7=O)CC5(F)F)CC4)sc23)cc(OC)c1CN(C)C (stereo not drawn) [Compound D127] |
|  | > 0.01 | COc1cc(-c2cn(C)c(=O)c3cc(C(=O)NC4CCN(c5ccc6c(c5)C(=O)N(C5CCC(=O)NC5=O)C6)CC4(F)F)oc23)cc(OC)c1CN(C)C (stereo not drawn) [Compound D218] |
|  | < 0.01 | COc1cc(-c2cn(C)c(=O)c3cc(C(=O)NC4CCN(CCC5CCN(c6ccc7c(c6)CN(C6CCC(=O)NC6=O)C7=O)CC5)CC4(F)F)sc23)cc(OC)c1CN(C)C (stereo not drawn) [Compound D102] |
|  | < 0.01 | COc1cc(-c2cn(C)c(=O)c3cc(C(=O)N[C@H]4CCN(C5CCN(c6ccc7c(c6)C(=O)N([C@@H]6CCC(=O)NC6=O)C7)CC5)CC4(F)F)sc23)cc(OC)c1CN(C)C [Compound D140] |
| < 0.01 |  | COc1cc(-c2cn(C)c(=O)c3cc(C(=O)NC4CC5CC4CN5CCN4CCN(c5ccc6c(c5)C(=O)N(C5CCC(=O)NC5=O)C6=O)CC4)sc23)cc(OC)c1CN(C)C (stereo not drawn) [Compound D70] |
|  | < 0.01 | COc1cc(-c2cn(C)c(=O)c3cc(C(=O)NC4CCN(CCN5CCC(c6ccc7c(c6)CN(C6CCC(=O)NC6=O)C7=O)CC5)CC4(F)F)sc23)cc(OC)c1CN(C)C (stereo not drawn) [Compound D195] |
